Tested on: HEK293T cells
Test: Nucleic acid delivery test (plasmid DNA with GFP gene, quantitative PCR)
Format: cell-based
Settings: buffered saline HBS, plasmid DNA 4.7 kb with GFP gene, after 48 hours
Method: Dimethylformamide solutions (10 mmol/L, 1 μL) of the aromatic compounds shown in Tables 1 and 2 were each dissolved in the buffered salines (25 μL) shown in Tables 1 and 2. However, in Comparative Example 2, no aromatic compound was used, and only dimethylformamide was used. The two resulting solutions were mixed and allowed to stand at room temperature for 30 minutes to complex the aromatic compound with the plasmid DNA. Thereafter, 450 μL of the buffered saline used for the complexification and 500 μL of Dulbecco's modified Eagle medium (DMEM, Wako) containing 10% fetal bovine serum were added, and the resulting complex was added to HEK293T cells (mammalian cells). After 48 hours, the amount of nucleic acid was measured by quantitative PCR.
In Tables 1 to 3, as for the buffered salines, “MEM” means Eagle's minimum essential medium, “TBS” means Tris-buffered saline, “HBS” means HEPES-buffered saline, and “MBS” means MES-buffered saline.

| SMILES | Amount of nucleic acid relative comparison with Example 1 |
| --- | --- |
| c1cc(N2CCNCC2)ccc1-c1cc2c(-c3ccc(N4CCNCC4)cc3)cc3c(-c4ccc(N5CCNCC5)cc4)cc4c(-c5ccc(N6CCNCC6)cc5)cc5c(-c6ccc(N7CCNCC7)cc6)cc1c1c5c4c3c21 [KTU205] | 1.112 |
| NCCc1ccc(-c2cc3c(-c4ccc(CCN)cc4)cc4c(-c5ccc(CCN)cc5)cc5c(-c6ccc(CCN)cc6)cc6c(-c7ccc(CCN)cc7)cc2c2c6c5c4c32)cc1 [KTU192] | 0.6727 |
| NCCOc1ccc(-c2cc3c(-c4ccc(OCCN)cc4)cc4c(-c5ccc(OCCN)cc5)cc5c(-c6ccc(OCCN)cc6)cc6c(-c7ccc(OCCN)cc7)cc2c2c6c5c4c32)cc1 [KTU204] | 0.6309 |

Source: patent publication US20250152718A1, “NUCLEIC ACID DELIVERY MATERIAL” (National University Corporation Tokai National Higher …, priority 2022, published 2025)
